6 compounds from US20230265105A1, “MACROCYCLIC 7-PYRAZOL-5-YL-INDOLE DERIVATIVES AS INHIBITORS OF MCL-1” (Janssen Pharmaceutica NV, priority 2020, published 2023) can be followed below.

In test [1] the test system is MOLP-8 human multiple myeloma cell line. The test is described as follows: MOLP8 Caspase-Glo 3/7 apoptosis induction assay. The test is classed as cell-based. The note with it: MOLP-8 cells, 2 hours at 37° C., 30 μM highest conc., averaged over all runs on all batches. The text has this: MCL-1 is a regulator of apoptosis and is highly over-expressed in tumor cells that escape cell death. The assay evaluates the cellular potency of small-molecule compounds targeting regulators of the apoptosis pathway, primarily MCL-1, Bfl-1, Bcl-2, and other proteins of the Bcl-2 family. Protein-protein inhibitors disrupting the interaction of anti-apoptotic regulators with BH3-domain proteins initiate apoptosis.
The Caspase-Glo® 3/7 Assay is a luminescent assay that measures caspase-3 and -7 activities in purified enzyme preparations or cultures of adherent or suspension cells. The assay provides a proluminescent caspase-3/7 substrate, which contains the tetrapeptide sequence DEVD. This substrate is cleaved to release aminoluciferin, a substrate of luciferase used in the production of light. Addition of the single Caspase-Glo® 3/7 Reagent in an “add-mix-measure” format results in cell lysis, followed by caspase cleavage of the substrate and generation of a “glow-type” luminescent signal.
This assay uses the MOLP-8 human multiple myeloma cell line, which is sensitive to MCL-1 inhibition.
Cell cultures were maintained between 0.2 and 2.0×10^6 cells/mL. The cells were harvested by collection in 50 mL conical tubes. The cells were then pelleted at 500 g for 5 mins before removing supernatant and resuspension in fresh pre-warmed culture medium. The cells were counted and diluted as needed.
The assay reagent was prepared by transferring the buffer solution to the substrate vial and mixing. The solution may be stored for up to 1 week at 4° C. with negligible loss of signal.
Compounds were delivered in assay-ready plates (Proxiplate) and stored at −20° C.
Assays always include 1 reference compound plate containing reference compounds. The plates were spotted with 40 nL of compounds (0.5% DMSO final in cells; serial dilution; 30 μM highest conc. 1/3 dilution, 10 doses, duplicates). The compounds were used at room temperature and 4 μL of pre-warmed media was added to all wells except column 2 and 23. The negative control was prepared by adding 1% DMSO in media. The positive control was prepared by adding the appropriate positive control compound in final concentration of 60 μM in media. The plate was prepared by adding 4 μL negative control to column 23, 4 μL positive control to column 2 and 4 μL cell suspension to all wells in the plate. The plate with cells was then incubated at 37° C. for 2 hours. The assay signal reagent is the Caspase-Glo solution described above, and 8 μL was added to all wells. The plates were then sealed and measured after 30 minutes.
The activity of a test compound was calculated as percent change in apoptosis induction as follows:
[formula] [formula] % Effect (AC50)=100−((sample−LC)/(HC−LC))*100
% Control=(sample/HC)*100
% Control min=(sample−LC)/(HC−LC)*100

The target of test [2] is Myeloid Cell Leukemia 1 (Mcl-1) (Homo sapiens, UniProt Q07820). The test is described as follows: Terbium labeled Mcl-1 HTRF binding assay with Cy5-labeled BIM BH3 peptide. The note with it: Ki=IC50/(1+[L]/Kd), [L]=8 nM, Kd=10 nM, 60 min incubation at room temperature, read-out: Tb-MCL1 Ki. The method, then: Terbium labeled Myeloid Cell Leukemia 1 (Mcl-1) homogeneous time-resolved fluorescence (HTRF) binding assay utilizing the BIM BH3 peptide (H2N-(C/Cy5Mal) WIAQELRRIGDEFN-OH) as the binding partner for Mcl-1.
Myeloid Cell Leukemia 1 (Mcl-1), sequence (Q07820 whole entry, the tested form may be a part): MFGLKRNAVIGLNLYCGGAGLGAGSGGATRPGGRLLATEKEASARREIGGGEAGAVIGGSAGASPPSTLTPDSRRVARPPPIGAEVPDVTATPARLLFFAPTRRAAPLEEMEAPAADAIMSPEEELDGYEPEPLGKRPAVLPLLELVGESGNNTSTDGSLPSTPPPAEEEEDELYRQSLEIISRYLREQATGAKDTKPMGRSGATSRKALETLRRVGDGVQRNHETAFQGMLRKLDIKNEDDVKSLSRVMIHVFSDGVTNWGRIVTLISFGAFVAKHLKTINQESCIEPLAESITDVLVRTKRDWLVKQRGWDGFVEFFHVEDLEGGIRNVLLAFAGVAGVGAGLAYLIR
This assay evaluated inhibition of the BH3 domain: Mcl-1 interaction by measuring the displacement of Cy5-labeled BIM BH3 peptide (H2N—(C/Cy5Mal) WIAQELRRIGDEFN-OH) in the HTRF assay format.
The following assay and stock buffers were prepared for use in the assay: (a) Stock buffer: 10 mM Tris-HCl, pH=7.5+150 mM NaCl, filtered, sterilized, and stored at 4° C.; and (b) 1×assay buffer, where the following ingredients were added fresh to stock buffer: 2 mM dithiothreitol (DTT), 0.0025% Tween-20, 0.1 mg/mL bovine serum albumin (BSA). The 1×Tb-Mcl-1+Cy5 Bim peptide solution was prepared by diluting the protein stock solution using the 1×assay buffer (b) to 25 pM Tb-Mcl-1 and 8 nM Cy5 Bim peptide.
Using the Acoustic ECHO, 100 nL of 100×test compound(s) were dispensed into individual wells of a white 384-well Perkin Elmer Proxiplate, for a final compound concentration of 1× and final DMSO concentration of 1%. Inhibitor control and neutral control (NC, 100 nL of 100% DMSO) were stamped into columns 23 and 24 of assay plate, respectively. Into each well of the plate was then dispensed 10 μL of the 1×Tb-Mcl-1+Cy5 Bim peptide solution. The plate was centrifuged with a cover plate at 1000 rpm for 1 minute, then incubated for 60 minutes at room temperature with plates covered.
The TR-FRET signal was read on an BMG PHERAStar FSX MicroPlate Reader at room temperature using the HTRF optic module (HTRF: excitation: 337 nm, light source: laser, emission A: 665 nm, emission B: 620 nm, integration start: 60 μs, integration time: 400 μs).
The BMG PHERAStar FSX MicroPlate Reader was used to measure fluorescence intensity at two emission wavelengths—665 nm and 620 nm—and report relative fluorescence units (RFU) for both emissions, as well as a ratio of the emissions (665 nm/620 nm)*10,000. The RFU values were normalized to percent inhibition as follows:
% inhibition=(((NC−IC)−(compound−IC))/(NC−IC))*100
where IC (inhibitor control, low signal)=mean signal of 1×Tb-MCl-1+Cy5 Bim peptide+inhibitor control or 100% inhibition of Mcl-1; NC (neutral control, high signal)=mean signal 1×Tb-MCl-1+Cy5 Bim peptide with DMSO only or 0% inhibition
An 11-point dose response curve was generated to determine IC50 values (using GenData) based on the following equation:
Y=Bottom+(Top−Bottom)/(1+10^((log IC50−X)*HillSlope))
where Y=% inhibition in the presence of X inhibitor concentration; Top=100% inhibition derived from the IC (mean signal of Mcl-1+inhibitor control); Bottom=0% inhibition derived from the NC (mean signal of Mcl-1+DMSO); Hillslope=Hill coefficient; and IC50=concentration of compound with 50% inhibition in relation to top/neutral control (NC).
In this assay [L]=8 nM and Kd=10 nM
Representative compounds of the present invention were tested according to the procedure as described above, with results as listed in the Table below (n.d. means not determined).

In test [1], `COCCOCCn1c(C(=O)O)c2c3ccc(Cl)c(c31)-c1c(cnn1C)CSCc1cc(n(C)n1)CCc1cc(c3ccc(F)cc3c1)OCCC2` (single isomer, unassigned) [Compound 22] came in with an AC50 of 22 nM. The Ki in test [2] stood at 0.029 nM.
`COCCn1c(C(=O)O)c2c3ccc(Cl)c(c31)-c1c(cnn1C)CSCc1cc(n(C)n1)CCc1cc(c3ccc(F)cc3c1)OCCC2` (single isomer, unassigned) [Compound 23]: the AC50 in test [1] was found to be 27 nM. In addition, the Ki in test [2] was 0.024 nM.
As for `COCCn1c(C(=O)O)c2c3ccc(Cl)c(c31)-c1c(cnn1C)CSCc1cc(n(C)n1)CCc1cc(c3ccc(F)cc3c1)OCCC2` (single isomer, unassigned) [Compound 24], in test [1], the activity was half-maximal at 2530 nM (AC50). The inhibition constant (Ki) in test [2] was determined as 2.15 nM.
The like results for `Cn1nc2cc1CCc1cc(c3ccc(F)cc3c1)OCCCc1c(C(=O)O)[nH]c3c(c(Cl)ccc13)-c1c(cnn1C)CSC2` (single isomer, unassigned) [Compound 25] were, in that order, 4130 nM and 0.807 nM.
The like results for `Cn1nc2cc1CCc1cc(c3ccc(F)cc3c1)OCCCc1c(C(=O)O)[nH]c3c(c(Cl)ccc13)-c1c(cnn1C)CSC2` (single isomer, unassigned) [Compound 26] were, in that order, 235 nM and 0.045 nM.
For `CN(C)CCn1c(C(=O)O)c2c3ccc(Cl)c(c31)-c1c(cnn1C)CSCc1cc(n(C)n1)CCc1cc(c3ccc(F)cc3c1)OCCC2` (single isomer, unassigned) [Compound 27], the AC50 in test [1] (Homo sapiens, MOLP-8, 2 h) was 117 nM. The Ki in test [2] came out at 0.031 nM.
